Experimental data as given in patent US10888574B2, “Method for suppressing obesity, method for treating obesity, and method for promoting gene expression” (Kinjirushi Co., Ltd., priority 2017, dated 2021).

Columns and labels:
UCP1 gene = test: Quantitative determination of expression level of UCP1 gene in brown adipocytes (real-time PCR, GAPDH internal standard); format: cell-based; conditions: rat primary brown adipocytes; for Relative value of UCP1 gene expression, Average: control = 1.00, n=3; for UCP1 gene expression as compared with the control (in words): FIG. 1
Protocol: (§1) In each example, as described below, brown adipocytes were cultured in a test medium to which each of various test substances has been added, and then quantitative determination of expression level of UCP1 gene and quantitative determination of lipid droplets by Oil Red 0 staining were performed.
(§2) Noradrenaline, isovitexin, and isosaponarin were each added to the maintenance medium. The final concentration in each media was set to 1 μmol/L for noradrenaline; 1 mmol/L, 100 μmol/L, and 10 μmol/L for isovitexin; and 1 mmol/L, 100 μmol/L, and 10 μmol/L for isosaponarin.
(§3) The brown adipocytes used in the test were those contained in the rat-derived primary brown adipocyte culture kit (manufactured by Cosmo Bio Co., Ltd., code number: BAT02). Using the above-described growth medium, the brown adipocytes were inoculated in the respective wells of a 24-well plate at a density of 3×10^4 cells/well. The brown adipocytes were cultured at 37° C. with 5% CO2 for 3 days in a CO2 incubator (multi-gas incubator, manufactured by Panasonic Healthcare Holdings Co., Ltd., product number: MCO-19MUVH). Next, the medium in each well was replaced with the differentiation-inducing medium, and culture was performed for 2 days in the CO2 incubator (5% CO2, 37° C.). Then, the medium in each well was replaced with the above-described maintenance medium, and culture was performed for 2 days in the CO2 incubator (5% CO2, 37° C.). Further, the medium in each well was replaced with the above-described maintenance medium again, and the brown adipocytes were cultured for 1 day in the CO2 incubator (5% CO2, 37° C.). Subsequently, analysis of gene expression and evaluation by Oil Red 0 staining were performed as below.
RNAs were recovered from the brown adipocytes using 0.2 mL per well of TRI Reagent (manufactured by Molecular Research Center, Inc., catalog number: TR118). Using 500 ng of each sample RNA, cDNA synthesis was performed using a cDNA synthesis kit (product name: SuperScript [registered trademark] VILO™ cDNA Synthesis Kit, manufactured by Thermo Fisher Scientific Inc., catalog number: 11754050). Real-time PCR was performed using a real-time PCR kit (product name: LightCycler [registered trademark] Taqman [registered trademark] Master, manufactured by Roche Applied Science, catalog number: 4735536) and a real-time PCR device (product name: LigthCycler [registered trademark] 480 System II, manufactured by Roche Diagnostics). Analysis of UCP1 gene expression was performed using GAPDH as an internal standard.
Primers and probes used in the test were as follows: • UCP1 primer, • forward primer: […] (SEQ ID No. 1, synthesized by Sigma-Aldrich Co. LLC), • reverse primer: tggccttcaccttggatct (SEQ ID No. 2, synthesized by Sigma-Aldrich Co. LLC), • probe: Universal ProbeLibrary probe #130 (manufactured by Roche Life Science Co. Ltd.), • GAPDH primer, • forward primer: […] (SEQ ID No. 3, synthesized by Sigma-Aldrich Co. LLC), • reverse primer: […] (SEQ ID No. 4, synthesized by Sigma-Aldrich Co. LLC), and
probe: Universal ProbeLibrary probe #80 (manufactured by Roche Life Science Co. Ltd.).
The number of experiments performed was three. […] The significant difference is indicated as “<0.05” when the significance level of the t-test was 5%, and as “<0.01” when the significance level was 1%.

brown adipocytes = test: Quantitative determination of lipid droplets by Oil Red O staining in brown adipocytes; format: cell-based, rat; conditions: for Quantity of lipid droplets produced, Average: relative absorbance at 540 nm, control = 100, n=3; for Quantity of lipid droplets produced compared with medium without the substance (in words): rat primary brown adipocytes, FIG. 2
Protocol: as §1, §2, §3
Lipid droplets in the cell cultured as described in the above item (2) were quantitatively determined through the steps below using Lipid Assay Kit (manufactured by Cosmo Bio Co., Ltd., code number: AK09F).
Step 2-1. Fixative solution was prepared by mixing the following ingredients together: • 37% formaldehyde solution (formalin stock solution): 100 mL, • purified water: 900 mL, • sodium dihydrogen phosphate monohydrate (NaH2PO4·H2O): 4 g, and • disodium hydrogen phosphate, anhydrous (Na2HPO4): 6.5 g.
Step 2-2. The culture solution was removed from the well plate subjected to the culture operation in the above “(2) Culture of brown adipocytes”. Then, each well was washed once with 500 μL per well of PBS.
Step 2-3. 500 μL per well of the fixative solution prepared in Step 2-1 was added to each well, and the well plate was left at rest overnight at room temperature.
Step 2-4. After the immobilization, washing of each well with 500 μL per well of purified water was performed.
Step 2-5. Undiluted Oil Red 0 solution in the kit and purified water were mixed together at a ratio of 6:4 (volume ratio) to obtain a mixed solution, and the mixed solution was left at rest at room temperature for 10 to 15 minutes. Then, the mixed solution was filtered through a membrane filter having pores with a pore diameter of 0.5 to 1.0 μm. The filtrate was used as Oil Red 0 solution.
Step 2-6. 500 μL of the above-described Oil Red 0 solution was dispensed into each well, and the well plate was left at rest at room temperature for 15 minutes.
Step 2-7. After that, the Oil Red 0 solution was removed from the well, and each well was washed with purified water three times or more. Such washing was performed thoroughly until the used purified water becomes clear.
Step 2-8. 500 μL of solvent for extraction in the kit was added into the dried well, and pigments were eluted. 0.1 mL of the eluate with the pigments eluted therein was dispensed into each well of a 96-well plate, and absorbance at a wavelength of 540 nm was measured with a micro-plate reader (Infinite [registered trademark] M200 PRO, manufactured by TECAN). […]

SMILES | Relative value of UCP1 gene expression, Average (UCP1 gene; final concentration 10 μmol/L) | Relative value of UCP1 gene expression, Average (UCP1 gene; final concentration 100 μmol/L) | Relative value of UCP1 gene expression, Average (UCP1 gene; final concentration 1 mmol/L) | UCP1 gene expression as compared with the control (in words) (UCP1 gene) | Quantity of lipid droplets produced, Average (brown adipocytes; concentration 10 μmol/L) [%] | Quantity of lipid droplets produced, Average (brown adipocytes; concentration 100 μmol/L) [%] | Quantity of lipid droplets produced, Average (brown adipocytes; concentration 1 mmol/L) [%] | Quantity of lipid droplets produced compared with medium without the substance (in words) (brown adipocytes) | Relative value of UCP1 gene expression, Average (UCP1 gene; final concentration 1 μmol/L)
O=c1cc(-c2ccc(OC3OC(CO)C(O)C(O)C3O)cc2)oc2cc(O)c(C3OC(CO)C(O)C(O)C3O)c(O)c12 (centres unmarked) [Isosaponarin] | 1.17 | 1.30 | 1.18 | significant increase in UCP1 gene expression | 104.0 | 97.7 | 98.9 | quantity of lipid droplets produced was smaller | 
O=c1cc(-c2ccc(O)cc2)oc2cc(O)c([C@@H]3O[C@H](CO)[C@@H](O)[C@H](O)[C@H]3O)c(O)c12 [Isovitexin] | 1.30 | 1.30 | 1.45 | significant increase in UCP1 gene expression | 84.8 | 83.3 | 77.8 | quantity of lipid droplets produced was smaller | 
NC[C@H](O)c1ccc(O)c(O)c1 [Noradrenaline, reference compound] |  |  |  |  |  |  |  |  | 1.38
